Values of other authors as cited in patent US20250381239A1, “METHOD FOR IMPROVING SLEEP QUALITY OR INCREASING SLEEP DURATION AND METHOD FOR RELIEVING PSYCHOLOGICAL STRESS” (TOYO SHINYAKU CO., LTD., priority 2024, published 2025).

Tests used:
mice [1] = settings: water immersion restraint test
mice [2] = settings: mice subjected only to psychological stress

For `NC(N)=Nc1nc(CSCCC(N)=NS(N)(=O)=O)cs1` [famotidine], the “Effect on physical stress ulcers” value (mice [1]) is listed as “effective” and the “Effect on psychological stress ulcers” value (mice [2]) is listed as “no effect”.
In the case of `CCN1CCCC1CNC(=O)c1cc(S(N)(=O)=O)ccc1OC` (stereo not shown) [sulpiride], the “Effect on physical stress ulcers” value (mice [1]) is listed as “no effect” and the “Effect on psychological stress ulcers” value (mice [2]) is listed as “effective”.
